For data set [1], the system named is IFN and IFN-stimulated gene (ISG) expression. The data set is described as follows: IFNα1 and MX1 mRNA by Real-time PCR in primary mouse alveolar epithelial cells. Format: cell-based. Background: In qPCR the cycle at which signal appears reflects the starting amount.
In data set [2] the test system is herpes simplex virus. Particulars: previously reported; cited from earlier work.
Data set [3] concerns A549 cells. The note with it: all the concentrations tested (30-80,000 nM), MTT assay. (In general: Tetrazolium assays rely on reduction of a dye to a coloured formazan, in cell work by metabolically active cells.)
For data set [4], the system named is Axin1. The data set is described as follows: Axin1 stabilization in A549 cells (immunostaining, Western blot). Type of data set: cell-based, human.
Data set [5] has as its system H1N1 influenza A/PR/8/34 virus. Type of data set: cell-based.
Data set [6] concerns Axin1. Type of data set: in vivo, mouse. The note with it: oral administration of RN-1 for 24 hours, 50 mg/kg.
The subject of data set [7] is H1N1 influenza A/PR/8/34 virus. The data set is described as follows: organism not typed. Type of data set: cell-based.
In data set [8] the test system is nonO/p54(nrb), SFPQ, and hnRNP M. Format: cell-based, human. The note with it: A549 cells, 20 μM RN-1 24 hours pretreatment, MOI=2.
For data set [9], the system named is H1N1 influenza A/PR/8/34 virus. The data set is described as follows: Lethal influenza virus challenge in mice (lung virus titer, survival). Type of data set: in vivo, mouse. Particulars: for survival rate after lethal virus challenge: mice, 1,000 pfu, RN-1 50 mg/kg orally daily, -1 to 2 or 4 dpi.
Method: Mice were challenged intranasally with a lethal dose (1,000 pfu) of H1N1 influenza A/PR/8/34 virus. […] Control animals received vehicle alone. […] (C) Virus titer in the homogenized infected lungs at 2 dpi was measured by TCID50 assay in MDCK cells and normalized to total protein amount. […] Data shown are means±s.e.m. and tested for statistical significance by Student's t-test. (D) Survival rate. […] Mantel-Cox χ2 test on Kaplan-Meier survival data was used to compare the survival rate between groups.
Male C57BL/6N mice (6-8 week old) were challenged intranasally with a lethal dose (1,000 pfu) of influenza virus A/PR/8/34 H1N1 under anesthesia. […] Control animals were given vehicle alone in the same formulation. All animals were observed daily for body weight loss and clinical signs of disease such as ruffled fur, inactivity and difficulty in breathing until 21 days post infection.
MDCK cells in 96-well plates were infected with serial dilutions (10^−1 to 10^−7) of virus samples in serum-free complete EMEM containing 1 μg/ml TPCK-treated trypsin for 1 hour. The cells were re-fed with the same medium for 4 days. TCID50 values (median tissue culture infective dose) were calculated by the method of Reed and Muench.
The results were analyzed by one-way ANOVA followed with posthoc Tukey's test for multiple comparisons of control and treatment groups, or Student's t-test using GraphPad Prism (version 6). Survival rates between groups were analyzed by Mantel-Cox χ2 test on Kaplan-Meier probability estimates using GraphPad Prism. All results were reported as mean±s.e.m.
For data set [10], the system named is Axin1-stimulated IFN response. The data set is described as follows: Axin1-stimulated IFN and ISG mRNA in OE-Axin1 HEK293 cells pretreated with inhibitors. Particulars: OE-Axin1, MOI=2. Type of data set: cell-based, human.
For data set [11], the system named is H1N1 influenza A/PR/8/34 virus. The data set is described as follows: Viral gene mRNA in OE-Axin1 HEK293 cells pretreated with inhibitors. Type of data set: cell-based.
The test system of data set [12] is ISRE activity. The data set is described as follows: ISRE_Luc dual-luciferase assay in OE-Axin1 HEK293 cells pretreated with inhibitors. Format: cell-based, human. The note with it: 10 μM inhibitor, OE-Axin1, MOI=2 for 8 hours.
For data set [13], the system named is influenza virus A/Puerto Rico/8/1934 H1N1. Type of data set: in vivo, mouse. The note with it: mice, 250 pfu, 50 μl 10× Wnt3a_CM intranasally 4 hours before and 2 days post infection, lungs day 5.
The test system of data set [14] is H1N1 influenza A/PR/8/34 virus. Format: cell-based. Particulars: E10 cells, 250 ng/ml rhWnt3a or 50% Wnt3a_CM 24 hours pretreatment, MOI=2 for 18 hours.
The mark [15] stands for this setting: primary mouse alveolar epithelial cells during virus infection, 20 μM RN-1, 12 hpi.
[16] abbreviates: 10 μM inhibitor 6 hours pretreatment.

Entries after “also recorded” stand apart in the source; their conditions may differ.

As to `Oc1nc(-c2ccc(C(F)(F)F)cc2)nc2c1CSCC2` [RN-1, 3,5,7,8-Tetrahydro-2-[4-(trifluoromethyl)phenyl]-4H-thiopyrano[4,3-d]pyrimidin-4-one], in data set [1] (setting [15]), the “mRNA expression of IFNα1” value is given as “increased the mRNA expression” and the “mRNA expression of the ISG MX1” value was “increased the mRNA expression”. Also, in [1] (uninfected cells), the “baseline IFN gene expression” value is recorded as “had no effects”. Besides, in data set [2], the “herpes simplex virus replication” value is given as “inhibit herpes simplex virus replication”. Further, in data set [3], the cell viability result is “did not affect cell viability”. In data set [4], the “Axin1 protein during influenza virus infection” value is listed as “Axin1 was not degraded”. The “virus replication (virus titer)” value in data set [5] is listed as “notably inhibited; also recorded: significantly inhibited virus replication”. The “Axin1 protein in the mouse lung” value in data set [6] is “successfully stabilized Axin1”. In addition, in [7], the “maximum inhibition of influenza virus replication” value is “over 99%” and the “virus replication (virus titer in supernatants)” value is “significantly attenuated”. Besides, the EC50 in data set [7] (A549, 24 h, read-out: EC50 of attenuation of influenza virus replication (virus titers in culture media)) is 419 nM. Also, the “degradation of nonO/p54(nrb), SFPQ and hnRNP M” value in [8] is recorded as “stimulated the degradation of all three proteins”. Also, in data set [9], the “survival rate after lethal virus challenge” value was “dramatically improved”. For the same molecule, the “survival rate after lethal virus challenge” value in data set [9] (listed as XAV939) is “protected animals from lethal influenza virus challenge”. Further, the “influenza virus replication in vivo (virus titer in infected lungs at 2 dpi)” value in data set [9] (mouse, in vivo, po) is “significantly attenuated”.
In the case of `COc1cc2c(cc1OC)CN(C(=O)/C=C/c1c(-c3ccccc3)n(C)c3ncccc13)CC2` [SIS3], in data set [10] (setting [16]), the “Axin1-stimulated IFN mRNA expression (IFNβ1, IFNα1, IFNα7, IFNλ1)” value was “the same inhibitory effect on Axin1-elevated anti-viral machinery except IFNβ1 synthesis (FIG. 7A) and MX1 expression (FIG. 7E); also recorded: only inhibited Axin1-induced expression of IFNα but not IFNβ1”; the “Axin1-stimulated ISGs expression (OAS1, MX1, IP10)” value was “the same inhibitory effect on Axin1-elevated anti-viral machinery except IFNβ1 synthesis (FIG. 7A) and MX1 expression (FIG. 7E)”. The “Axin1-regulated Type I and Type III IFN synthesis” value in data set [10] (10 μM inhibitor) was “the same inhibitory effect in both scenarios”. Further, the “effect on Axin1-mediated attenuation of influenza virus replication (viral gene mRNA)” value in data set [11] is reported as “relived Axin1-mediated attenuation of influenza virus replication”. For the same molecule, the “Axin1-stimulated ISRE activity” value in data set [12] is “the same inhibitory effect”.

B1: Wnt3a: activator of Wnt/β-catenin signaling, given as rhWnt3a or Wnt3a_CM (protein, UniProt P56704 19-352, looked up)
Protein Wnt-3a: SYPIWWSLAVGPQYSSLGSQPILCASIPGLVPKQLRFCRNYVEIMPSVAEGIKIGIQECQHQFRGRRWNCTTVHDSLAIFGPVLDKATRESAFVHAIASAGVAFAVTRSCAEGTAAICGCSSRHQGSPGKGWKWGGCSEDIEFGGMVSREFADARENRPDARSAMNRHNNEAGRQAIASHMHLKCKCHGLSGSCEVKTCWWSQPDFRAIGDFLKDKYDSASEMVVEKHRESRGWVETLRPRYTYFKVPTERDLVYYEASPNFCEPNPETGSFGTRDRTCNVSSHGIDGCDLLCCGRGHNARAERRREKCRCVFHWCCYVSCQECTRVYDVHTCK
With B1, the “virus replication in vivo (viral gene mRNA in lungs)” value in data set [13] is recorded as “dramatically promotes virus replication”. Also, in [14], the “virus replication in vitro (viral gene mRNA)” value is reported as “dramatically promotes virus replication”.

For orientation: EC50 means the concentration at which the effect is half-maximal.

Source of the values: US10064862B2, “Antiviral axin stabilizer” (priority 2014, dated 2018).
